# The source made the active and inactive calls.
# Tests used:
# [1] = target: T1, Calpain-2 catalytic subunit (Sus scrofa, UniProt P43367); assay: pig calpain II inhibitor potency, dose response, biochemical, fluorogenic peptide substrate (AID 1420); type: functional
# T1 sequence (P43367 whole entry): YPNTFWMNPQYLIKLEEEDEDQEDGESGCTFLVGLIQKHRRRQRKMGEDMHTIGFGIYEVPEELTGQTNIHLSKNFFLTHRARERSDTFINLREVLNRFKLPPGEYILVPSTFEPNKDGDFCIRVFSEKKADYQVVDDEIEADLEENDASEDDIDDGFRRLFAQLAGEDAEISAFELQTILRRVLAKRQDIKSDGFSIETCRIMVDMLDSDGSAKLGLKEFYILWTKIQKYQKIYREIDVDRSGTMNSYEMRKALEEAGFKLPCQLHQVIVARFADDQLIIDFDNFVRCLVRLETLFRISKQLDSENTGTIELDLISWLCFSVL
# [2] = target: Induced myeloid leukemia cell differentiation protein Mcl-1 (Homo sapiens, UniProt Q07820); type: functional
# [3] = target: Prothrombin (Homo sapiens, UniProt P00734); assay: Thrombin 1536 HTS Dose Response Confirmation. [Related pubchem assays: 1046 (Thrombin 1536 HTS; hits were confirmed in this assay)]; type: functional
# [4] = target: Cytochrome P450 2C9 (Homo sapiens, UniProt P11712)
# [5] = target: T2, Caspase-6 (Homo sapiens, UniProt P55212); assay: human caspase-6 inhibitors, dose response, biochemical, VEID-R110 fluorescence, cherry-pick (AID 720632)
# T2 sequence (P55212 whole entry): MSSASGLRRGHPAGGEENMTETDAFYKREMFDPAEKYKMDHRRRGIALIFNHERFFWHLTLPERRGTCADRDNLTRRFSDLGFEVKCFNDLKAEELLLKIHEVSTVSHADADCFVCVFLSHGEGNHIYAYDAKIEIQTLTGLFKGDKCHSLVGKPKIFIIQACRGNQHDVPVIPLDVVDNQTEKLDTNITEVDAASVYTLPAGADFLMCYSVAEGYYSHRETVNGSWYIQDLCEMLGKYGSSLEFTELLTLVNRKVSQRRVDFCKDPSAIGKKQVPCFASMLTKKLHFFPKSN
# [6] = growth suppression of beta-catenin-knockout colon cells, dose response, cell-based, HCT116, human colon tumor (AID 1045); type: functional;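 note: HCT116 colon tumor cells with beta catenin knocked out; cells exposed to compound for 60 hours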
# [7] = target: T3, Caspase-3 (Homo sapiens, UniProt P42574); type: functional;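 note: Dose-response selectivity test against caspase-3 for candidate inhibitors of sentrin-specific proteases (SENPs)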
# T3 sequence (P42574 whole entry): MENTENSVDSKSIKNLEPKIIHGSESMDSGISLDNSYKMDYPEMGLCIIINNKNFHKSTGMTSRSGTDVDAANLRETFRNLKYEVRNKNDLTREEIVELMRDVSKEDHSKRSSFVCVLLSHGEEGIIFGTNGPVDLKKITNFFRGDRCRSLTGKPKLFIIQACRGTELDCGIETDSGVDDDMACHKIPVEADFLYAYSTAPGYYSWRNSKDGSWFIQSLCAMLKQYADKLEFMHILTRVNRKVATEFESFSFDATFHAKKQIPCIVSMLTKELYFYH
# [8] = target: T4, Sentrin-specific protease 6 (Homo sapiens, UniProt Q9GZR1); type: functional;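 note: Luminescence-based dose-response confirmatory assay of SENP6 inhibition, following up an ultra-high-throughput screen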
# T4 sequence (Q9GZR1 whole entry): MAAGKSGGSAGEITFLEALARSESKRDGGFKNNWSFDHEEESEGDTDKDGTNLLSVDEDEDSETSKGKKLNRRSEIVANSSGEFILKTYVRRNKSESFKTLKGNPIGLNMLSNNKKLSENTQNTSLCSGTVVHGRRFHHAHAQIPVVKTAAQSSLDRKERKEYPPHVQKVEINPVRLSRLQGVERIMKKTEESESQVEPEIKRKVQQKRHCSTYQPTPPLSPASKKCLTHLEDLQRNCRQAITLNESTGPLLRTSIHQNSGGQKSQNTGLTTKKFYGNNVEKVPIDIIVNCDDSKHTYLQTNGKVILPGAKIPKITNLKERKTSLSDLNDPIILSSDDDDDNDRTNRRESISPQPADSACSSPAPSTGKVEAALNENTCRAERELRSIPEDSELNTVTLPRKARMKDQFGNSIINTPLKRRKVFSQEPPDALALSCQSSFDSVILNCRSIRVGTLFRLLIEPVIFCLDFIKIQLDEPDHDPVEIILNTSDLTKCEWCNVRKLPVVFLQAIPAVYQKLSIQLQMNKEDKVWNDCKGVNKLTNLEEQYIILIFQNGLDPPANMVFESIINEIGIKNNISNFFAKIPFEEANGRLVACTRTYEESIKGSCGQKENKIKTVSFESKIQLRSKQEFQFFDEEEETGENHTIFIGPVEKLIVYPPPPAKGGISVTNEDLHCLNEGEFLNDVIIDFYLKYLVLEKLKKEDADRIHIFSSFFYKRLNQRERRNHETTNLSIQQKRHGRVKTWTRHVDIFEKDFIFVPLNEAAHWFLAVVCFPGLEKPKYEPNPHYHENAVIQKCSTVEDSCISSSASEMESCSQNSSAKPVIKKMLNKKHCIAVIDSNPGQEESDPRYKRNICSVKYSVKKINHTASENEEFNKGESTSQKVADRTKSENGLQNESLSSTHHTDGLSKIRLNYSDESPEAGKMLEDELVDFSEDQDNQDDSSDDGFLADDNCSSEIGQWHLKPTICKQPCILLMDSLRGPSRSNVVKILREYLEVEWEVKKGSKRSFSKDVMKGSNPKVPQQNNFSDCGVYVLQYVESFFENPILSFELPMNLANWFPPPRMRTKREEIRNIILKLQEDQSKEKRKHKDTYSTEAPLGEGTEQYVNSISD
# [9] = growth suppression of PTEN-null colon cells, dose response, cell-based, HCT116 PTEN knockout (AID 1047); type: functional;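 note: HCT116 colon tumor cells with PTEN knocked out; cells exposed to compound for 60 hours before readout; potency for loss of cell viability measured by luminescence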
# [10] = target: T5, Sentrin-specific protease 8 (Homo sapiens, UniProt Q96LD8); type: functional;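 note: luminescence read-out of SENP8 inhibition, dose-response confirmation following an ultra-high-throughput screen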
# T5 sequence (Q96LD8 whole entry): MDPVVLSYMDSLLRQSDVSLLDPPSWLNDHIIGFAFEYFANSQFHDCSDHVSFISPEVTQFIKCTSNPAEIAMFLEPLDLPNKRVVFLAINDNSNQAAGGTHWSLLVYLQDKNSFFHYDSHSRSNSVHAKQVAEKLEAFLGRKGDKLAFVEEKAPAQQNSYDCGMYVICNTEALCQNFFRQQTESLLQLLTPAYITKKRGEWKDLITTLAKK
# [11] = target: T6, Sentrin-specific protease 7 (Homo sapiens, UniProt Q9BQF6); type: functional;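 note: Luminescence-based dose-response confirmation of ultra-high-throughput screening hits, measuring inhibition of SENP7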
# T6 sequence (Q9BQF6 whole entry): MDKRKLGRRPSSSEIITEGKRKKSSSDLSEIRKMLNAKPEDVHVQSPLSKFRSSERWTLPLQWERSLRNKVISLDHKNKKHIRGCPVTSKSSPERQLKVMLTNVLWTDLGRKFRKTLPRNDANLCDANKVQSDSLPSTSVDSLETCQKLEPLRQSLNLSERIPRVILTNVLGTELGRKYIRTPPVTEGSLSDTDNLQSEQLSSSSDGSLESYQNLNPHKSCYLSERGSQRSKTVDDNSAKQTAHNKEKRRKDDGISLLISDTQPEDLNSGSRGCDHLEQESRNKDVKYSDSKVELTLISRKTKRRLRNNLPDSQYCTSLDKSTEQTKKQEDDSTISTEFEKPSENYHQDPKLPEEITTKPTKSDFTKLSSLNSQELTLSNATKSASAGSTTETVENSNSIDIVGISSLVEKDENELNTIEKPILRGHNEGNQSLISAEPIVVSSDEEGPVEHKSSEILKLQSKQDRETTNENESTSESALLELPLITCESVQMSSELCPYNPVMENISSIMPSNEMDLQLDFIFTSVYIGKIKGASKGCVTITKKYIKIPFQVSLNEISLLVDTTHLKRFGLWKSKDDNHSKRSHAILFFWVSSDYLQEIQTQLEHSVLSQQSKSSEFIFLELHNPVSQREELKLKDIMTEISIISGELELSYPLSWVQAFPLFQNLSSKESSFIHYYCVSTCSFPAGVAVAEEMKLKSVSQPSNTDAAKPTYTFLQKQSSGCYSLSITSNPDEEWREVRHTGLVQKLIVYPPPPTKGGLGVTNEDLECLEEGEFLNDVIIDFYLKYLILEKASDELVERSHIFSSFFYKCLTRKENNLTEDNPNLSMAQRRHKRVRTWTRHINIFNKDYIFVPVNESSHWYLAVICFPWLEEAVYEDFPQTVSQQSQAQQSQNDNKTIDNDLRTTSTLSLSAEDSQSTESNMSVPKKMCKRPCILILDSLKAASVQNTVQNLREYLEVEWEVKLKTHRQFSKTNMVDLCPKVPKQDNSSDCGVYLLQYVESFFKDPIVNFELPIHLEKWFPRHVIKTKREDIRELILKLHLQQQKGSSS
# [12] = system: BJ; assay: cytotoxicity toward BJ-TERT fibroblasts, dose response, cell-based, RAS-independent, luminescence (AID 1933); type: functional; details: Homo sapiens
# [13] = system: BJ; assay: cells; type: functional, cell-based; details: Homo sapiens
# [14] = cytotoxicity in HEK-293T cells, dose response, cytotoxicity control for TCR NF-kB inhibitor project, luminescence, T-cell screen hits (AID 489026); type: functional, cell-based;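 note: cells exposed to compound about 14 hours before the viability readout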
# [15] = system: BJ; assay: cytotoxicity toward BJ-TERT-LT-ST fibroblasts, dose response, cell-based, RAS-independent, luminescence (AID 1935); type: functional; details: Homo sapiens;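 note: BJ fibroblasts immortalized with TERT plus LT and ST oncogenes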
# [16] = cytotoxicity toward DRD oncogenic fibroblasts, dose response, cell-based, non-viral oncogenic, luminescence (AID 1934); type: functional; details: Homo sapiens
# [17] = inhibitors of SNCA 5'UTR-driven reporter translation, confirmation, H4 neuroglioma cells, luminescence (AID 1988); type: functional, cell-based
# [18] = target: FAD-linked sulfhydryl oxidase ALR (Homo sapiens, UniProt P55789); assay: inhibitors of human ALR sulfhydryl oxidase, dose response, biochemical, H2O2 detection, luminescence, cherry-pick (AID 493248)
# [19] = target: Large T antigen (Simian virus 40, UniProt P03070); type: functional, Betapolyomavirus macacae;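 note: Confirmatory-stage PubChem screen for compounds that inhibit SV40 T antigen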
# [20] = inhibitors of firefly luciferase expression or activity, dose response, H4 neuroglioma cells, luminescence (AID 1990); type: functional, cell-based
# [21] = Luminescence Cell-Based Dose Response HTS to Identify Inhibitors of 5'UTR Stem-Loop Driven Prion Protein mRNA Translation in H4 Neuroglioblastoma Cells. [Related pubchem assays: 1827 (Project Summary), 1813 (Primary HTS)]; type: functional
# [22] = target: Cytochrome P450 2C19 (Homo sapiens, UniProt P33261); assay: Cytochrome panel assay with activity outcomes. Panel member name: p450-cyp2c19 Compounds with AC50 equal or less than 10 uM are considered active; type: functional; details: read-out: AC50
# Chain of Cytochrome P450 2C19 (P33261 whole entry): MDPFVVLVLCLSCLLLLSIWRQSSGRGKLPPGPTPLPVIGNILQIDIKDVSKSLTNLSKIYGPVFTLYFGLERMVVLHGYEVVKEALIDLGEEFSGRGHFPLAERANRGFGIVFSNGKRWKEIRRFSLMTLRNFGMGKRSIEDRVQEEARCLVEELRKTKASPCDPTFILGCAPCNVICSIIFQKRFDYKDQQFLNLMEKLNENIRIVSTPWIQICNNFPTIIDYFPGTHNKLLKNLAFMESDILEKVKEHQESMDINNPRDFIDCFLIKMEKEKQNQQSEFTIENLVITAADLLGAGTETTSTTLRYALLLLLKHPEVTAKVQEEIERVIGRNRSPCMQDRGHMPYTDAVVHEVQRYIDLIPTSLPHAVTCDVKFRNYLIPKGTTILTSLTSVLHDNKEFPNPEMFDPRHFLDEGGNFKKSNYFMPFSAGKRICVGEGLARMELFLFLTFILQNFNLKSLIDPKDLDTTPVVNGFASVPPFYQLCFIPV
# Chain of Induced myeloid leukemia cell differentiation protein Mcl-1 (Q07820 whole entry): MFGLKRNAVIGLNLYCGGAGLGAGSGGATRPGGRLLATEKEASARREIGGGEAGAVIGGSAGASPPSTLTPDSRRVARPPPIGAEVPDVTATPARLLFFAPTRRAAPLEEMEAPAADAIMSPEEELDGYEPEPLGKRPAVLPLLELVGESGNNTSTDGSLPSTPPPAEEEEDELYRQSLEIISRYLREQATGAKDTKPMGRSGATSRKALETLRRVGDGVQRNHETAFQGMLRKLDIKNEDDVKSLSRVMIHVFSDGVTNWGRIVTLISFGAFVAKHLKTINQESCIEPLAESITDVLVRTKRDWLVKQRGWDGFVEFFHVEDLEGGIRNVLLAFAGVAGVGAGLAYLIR
# Chain of FAD-linked sulfhydryl oxidase ALR (P55789 whole entry): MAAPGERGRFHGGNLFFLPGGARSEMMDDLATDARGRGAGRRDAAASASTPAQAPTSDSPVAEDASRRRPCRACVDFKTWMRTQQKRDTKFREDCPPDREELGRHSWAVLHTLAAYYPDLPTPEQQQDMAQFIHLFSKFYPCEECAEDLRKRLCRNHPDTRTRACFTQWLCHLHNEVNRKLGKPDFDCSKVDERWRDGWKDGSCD
# Chain of Large T antigen (P03070 whole entry): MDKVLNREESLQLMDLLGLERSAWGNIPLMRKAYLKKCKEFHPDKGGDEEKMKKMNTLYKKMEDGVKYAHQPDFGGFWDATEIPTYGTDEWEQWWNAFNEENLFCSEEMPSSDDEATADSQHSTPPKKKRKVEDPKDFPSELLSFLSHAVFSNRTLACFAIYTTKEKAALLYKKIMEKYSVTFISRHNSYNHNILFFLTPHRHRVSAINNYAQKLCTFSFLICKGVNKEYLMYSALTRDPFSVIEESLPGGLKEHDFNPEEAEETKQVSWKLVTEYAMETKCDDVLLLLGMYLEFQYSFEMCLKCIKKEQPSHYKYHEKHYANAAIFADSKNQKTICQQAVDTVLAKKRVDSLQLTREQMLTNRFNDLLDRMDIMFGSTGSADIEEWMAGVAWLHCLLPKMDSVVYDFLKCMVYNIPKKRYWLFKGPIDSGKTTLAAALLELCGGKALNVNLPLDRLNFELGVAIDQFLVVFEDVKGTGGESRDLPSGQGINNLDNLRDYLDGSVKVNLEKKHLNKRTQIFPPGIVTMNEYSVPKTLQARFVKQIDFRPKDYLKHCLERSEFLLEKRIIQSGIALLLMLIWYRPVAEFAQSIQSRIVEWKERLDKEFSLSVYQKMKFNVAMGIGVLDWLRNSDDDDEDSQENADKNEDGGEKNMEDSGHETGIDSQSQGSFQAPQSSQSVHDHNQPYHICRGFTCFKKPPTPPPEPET
# Chain of Cytochrome P450 2C9 (P11712 whole entry): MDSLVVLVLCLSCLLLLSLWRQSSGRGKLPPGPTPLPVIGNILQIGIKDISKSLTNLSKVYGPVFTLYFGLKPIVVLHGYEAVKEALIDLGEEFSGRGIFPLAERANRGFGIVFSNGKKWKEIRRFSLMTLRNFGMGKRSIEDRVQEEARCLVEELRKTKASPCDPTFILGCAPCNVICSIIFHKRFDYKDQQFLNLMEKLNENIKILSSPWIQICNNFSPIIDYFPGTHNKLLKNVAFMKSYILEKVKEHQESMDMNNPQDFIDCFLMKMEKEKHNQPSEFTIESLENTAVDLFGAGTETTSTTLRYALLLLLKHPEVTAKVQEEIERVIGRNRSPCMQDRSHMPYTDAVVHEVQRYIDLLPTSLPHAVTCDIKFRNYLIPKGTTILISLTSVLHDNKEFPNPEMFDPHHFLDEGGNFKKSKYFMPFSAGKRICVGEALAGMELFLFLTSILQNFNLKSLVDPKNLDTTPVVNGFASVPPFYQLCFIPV
structure (smiles),measurement,setting,value
Cn1c(N)c(C(=O)COC(=O)C2CCC(C(C)(C)C)CC2)c(=O)n(C)c1=O (stereo unspecified),IC50,[1],10.4 µM (active)
CCc1nn2c(=O)cc(COc3ccc(/C=C4\C(=N)N5N=C(C)SC5=NC4=O)cc3)nc2s1,IC50,[2],4.66 µM (active)
COc1cccc(NC(=S)N(CCCN2CCCC2)Cc2ccco2)c1,IC50,[3],> 50 µM (inconclusive)
COc1ccc(C(=O)n2nc(-c3ccccc3)nc2SC)cc1,AC50,[4],0.141 µM (inconclusive)
same,IC50,[3],0.913 µM (active)
O=C(O)c1ccc(N=Nc2c(O)[nH]c3cc(Cl)ccc23)cc1,AC50,[5],49.4 µM (active)
COCC(=O)n1nc(-c2ccc(C)cc2)nc1NCc1ccc(F)cc1,IC50,[3],0.502 µM (active)
Oc1[nH]c2ccccc2c1N=Nc1nc2ccccc2s1,EC50,[6],32.3 µM (active)
same,IC50,[7],27.6 µM (active)
same,IC50,[8],66.4 µM (active)
same,EC50,[9],26.5 µM (active)
same,IC50,[10],> 100 µM (inactive)
same,IC50,[2],3.84 µM (active)
same,IC50,[11],4.3 µM (active)
CC(=O)n1nc(-c2ccc(C)cc2)nc1NCc1ccc(F)cc1,IC50,[3],0.373 µM (active)
CC(C)C(=O)n1nc(-c2cccnc2)nc1NCc1cccs1,IC50,[3],0.006 µM (active)
CCOc1ccc(N(CC(=O)Nc2ccccc2C)S(=O)(=O)c2c(C)noc2C)cc1,EC50,[12],5.06 µM (active)
same,EC50,[13],29.9 µM (active)
same,IC50,[14],> 80 µM (inactive)
same,EC50,[15],16.9 µM (active)
same,EC50,[16],4.15 µM (active)
COc1cc(-n2c(=O)c3ccccc3n(Cc3cccc(C)c3)c2=O)cc(OC)c1OC,IC50,[1],19.3 µM (active)
Nc1ccc(OC(=O)Nc2ccc(O)cc2)cc1,EC50,[17],9.76 µM (active)
same,AC50,[18],1.38 µM (active)
same,IC50,[19],6.52 µM (active)
same,AC50,[5],18.7 µM (active)
same,EC50,[20],11.2 µM (active)
same,EC50,[21],11.7 µM (active)
OC1=C2C(=Nc3ccc4ncccc4c3C2c2ccc(O)c(O)c2)CCC1 (stereo unspecified),IC50,[2],4.38 µM (active)
Cc1ccccc1NC(=S)NCCC(c1ccccc1)c1ccccc1,IC50,[1],2.48 µM (not active)
COc1ccc(C(=O)Nc2cccc(-c3cc4ccccc4oc3=O)c2)cc1[N+](=O)[O-],IC50,[1],12.3 µM (not active)
Cc1ccc(NC(S)=NC(C)CCc2ccccc2)cc1C (stereo unspecified),IC50,[1],17.3 µM (not active)
Oc1ccccc1C1Nc2cccc3cccc(c23)N1,IC50,[2],3.25 µM (active)
same,AC50,[22],3.16 µM (inconclusive)
COc1cc(/C=C2\SC(=S)N(CC(=O)O)C2=O)ccc1OS(=O)(=O)c1ccc(C)cc1,AC50,[18],2.07 µM (active)
same,AC50,[5],46.2 µM (active)
COc1ccc(/C=N/Nc2nncc3ccccc23)cc1,EC50,[12],8.72 µM (active)
same,EC50,[13],9.05 µM (active)
same,EC50,[15],18.6 µM (active)
same,EC50,[16],7.41 µM (active)
C/C(=N\OCC(=O)NC12CC3CC(CC(C3)C1)C2)c1cc2ccccc2o1,IC50,[1],8.83 µM (not active)

# Reference: ChEMBL document CHEMBL1201862, “PubChem BioAssay data set” (2004)
